From patent publication EP4722207A1, “OXOISOINDOLINYL-SUBSTITUTED TETRAHYDROPYRIMIDINEDIONE DERIVATIVE AND USE THEREOF” (Gluetacs Therapeutics (Shanghai) Co., Ltd., priority 2023, dated 2024) come the findings set out here.

Holding throughout (type): cell-based
What all share (settings): compounds at 50 nM and 500 nM, 24 hours

One experiment has as its target T1, IKZF2 (Homo sapiens, UniProt Q96SW2+Q9UKS7).
T1 construct: effects of the compounds of the present disclosure on the expression of target proteins in cells; endogenous in cells; host or cells: human PBMCs (hPBMCs)
The experiment is described as follows: Western-blot assay, substrate protein degradation in hPBMCs: IKZF2.

The next experiment addresses T2, GSPT1 (Homo sapiens, UniProt P15170+Q96SW2).
T2 construct: effects of the compounds of the present disclosure on the expression of target proteins in cells; endogenous in cells; host or cells: human PBMCs (hPBMCs)
The experiment is described as follows: Western-blot assay, substrate protein degradation in hPBMCs: GSPT1.

In the next experiment the target is T3, WEE1 (Homo sapiens, UniProt P30291+Q96SW2).
T3 construct: effects of the compounds of the present disclosure on the expression of target proteins in cells; endogenous in cells; host or cells: human PBMCs (hPBMCs)
T3 sequence (P30291 whole entry): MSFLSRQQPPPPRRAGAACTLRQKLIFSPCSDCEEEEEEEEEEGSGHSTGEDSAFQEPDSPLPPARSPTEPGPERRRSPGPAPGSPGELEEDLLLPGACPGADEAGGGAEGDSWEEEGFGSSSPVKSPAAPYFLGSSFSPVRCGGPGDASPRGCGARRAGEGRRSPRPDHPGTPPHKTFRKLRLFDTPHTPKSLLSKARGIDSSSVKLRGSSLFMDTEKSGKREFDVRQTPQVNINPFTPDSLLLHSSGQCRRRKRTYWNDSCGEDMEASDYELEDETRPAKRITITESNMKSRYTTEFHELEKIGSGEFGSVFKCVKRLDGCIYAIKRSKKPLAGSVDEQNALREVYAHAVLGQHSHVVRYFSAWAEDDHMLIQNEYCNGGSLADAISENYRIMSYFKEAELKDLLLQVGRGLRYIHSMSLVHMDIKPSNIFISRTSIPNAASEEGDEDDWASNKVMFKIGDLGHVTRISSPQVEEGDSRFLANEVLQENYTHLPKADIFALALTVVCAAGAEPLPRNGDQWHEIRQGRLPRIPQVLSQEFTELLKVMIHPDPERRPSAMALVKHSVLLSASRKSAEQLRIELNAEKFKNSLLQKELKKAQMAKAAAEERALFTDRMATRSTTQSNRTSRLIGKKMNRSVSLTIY
T3 sequence (Q96SW2 whole entry): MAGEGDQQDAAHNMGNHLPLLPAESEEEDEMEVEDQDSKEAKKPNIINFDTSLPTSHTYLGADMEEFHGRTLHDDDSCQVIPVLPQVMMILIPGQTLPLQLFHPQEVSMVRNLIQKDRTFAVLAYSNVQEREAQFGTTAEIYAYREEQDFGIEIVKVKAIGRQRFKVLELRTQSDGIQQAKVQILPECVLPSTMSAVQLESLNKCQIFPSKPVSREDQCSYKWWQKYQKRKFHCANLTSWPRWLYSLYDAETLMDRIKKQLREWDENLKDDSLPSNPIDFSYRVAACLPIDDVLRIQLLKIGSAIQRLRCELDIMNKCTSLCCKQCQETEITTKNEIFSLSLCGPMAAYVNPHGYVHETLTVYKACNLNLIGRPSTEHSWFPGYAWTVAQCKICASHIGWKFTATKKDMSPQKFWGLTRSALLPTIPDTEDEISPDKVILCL
T3 sequence (Q16531 whole entry partner): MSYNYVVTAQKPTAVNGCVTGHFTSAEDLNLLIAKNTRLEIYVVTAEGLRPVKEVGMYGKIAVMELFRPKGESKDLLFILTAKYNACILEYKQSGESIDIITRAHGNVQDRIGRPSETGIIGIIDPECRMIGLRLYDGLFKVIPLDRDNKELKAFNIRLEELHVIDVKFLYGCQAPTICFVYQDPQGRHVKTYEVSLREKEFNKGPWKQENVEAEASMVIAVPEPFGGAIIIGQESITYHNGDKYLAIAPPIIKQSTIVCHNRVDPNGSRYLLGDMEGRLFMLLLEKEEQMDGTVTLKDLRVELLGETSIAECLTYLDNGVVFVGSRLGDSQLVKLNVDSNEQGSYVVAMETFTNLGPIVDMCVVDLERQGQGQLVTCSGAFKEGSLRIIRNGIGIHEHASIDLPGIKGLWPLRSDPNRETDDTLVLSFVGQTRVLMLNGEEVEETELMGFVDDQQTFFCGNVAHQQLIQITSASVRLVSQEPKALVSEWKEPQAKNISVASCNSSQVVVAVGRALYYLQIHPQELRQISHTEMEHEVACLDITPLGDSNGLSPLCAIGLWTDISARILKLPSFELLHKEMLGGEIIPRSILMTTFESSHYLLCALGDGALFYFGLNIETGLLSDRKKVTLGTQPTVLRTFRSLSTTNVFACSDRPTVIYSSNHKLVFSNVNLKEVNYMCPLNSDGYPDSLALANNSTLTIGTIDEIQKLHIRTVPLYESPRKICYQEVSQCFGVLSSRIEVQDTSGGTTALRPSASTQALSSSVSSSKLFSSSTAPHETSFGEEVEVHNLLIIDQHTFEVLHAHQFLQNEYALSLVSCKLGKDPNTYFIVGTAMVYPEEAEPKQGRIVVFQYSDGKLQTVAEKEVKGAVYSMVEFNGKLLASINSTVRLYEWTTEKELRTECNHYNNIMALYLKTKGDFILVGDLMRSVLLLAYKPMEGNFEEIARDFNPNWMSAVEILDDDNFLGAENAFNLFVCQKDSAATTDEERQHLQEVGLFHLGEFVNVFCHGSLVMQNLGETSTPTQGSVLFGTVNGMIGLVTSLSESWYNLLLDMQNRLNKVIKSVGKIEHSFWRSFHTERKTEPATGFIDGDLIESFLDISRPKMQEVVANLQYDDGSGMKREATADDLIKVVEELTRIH
Description: Western-blot assay, substrate protein degradation in hPBMCs: WEE1.

In another experiment the target is T4, IKZF1 (Homo sapiens, UniProt Q13422+Q96SW2).
T4 construct: effects of the compounds of the present disclosure on the expression of target proteins in cells; endogenous in cells; host or cells: human PBMCs (hPBMCs)
The experiment is described as follows: Western-blot assay, substrate protein degradation in hPBMCs: IKZF1.

The target of the next experiment is T5, CK1α (Homo sapiens, UniProt P48729+Q96SW2).
T5 construct: effects of the compounds of the present disclosure on the expression of target proteins in cells; endogenous in cells; host or cells: human PBMCs (hPBMCs)
T5 sequence (P48729 whole entry): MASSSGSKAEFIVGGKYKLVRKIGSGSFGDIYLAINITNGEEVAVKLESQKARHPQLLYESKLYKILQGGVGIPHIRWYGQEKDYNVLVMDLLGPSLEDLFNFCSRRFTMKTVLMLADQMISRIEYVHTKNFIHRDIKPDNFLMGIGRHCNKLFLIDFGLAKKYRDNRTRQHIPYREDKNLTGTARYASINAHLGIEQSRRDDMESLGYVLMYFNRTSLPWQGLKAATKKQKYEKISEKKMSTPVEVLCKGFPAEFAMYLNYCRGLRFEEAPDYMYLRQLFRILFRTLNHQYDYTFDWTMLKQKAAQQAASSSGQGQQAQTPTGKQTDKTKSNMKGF
T5 sequence (Q96SW2 whole entry): as the sequence (Q96SW2 whole entry) above
T5 sequence (Q16531 whole entry partner): as the sequence (Q16531 whole entry partner) above
Description: Western-blot assay, substrate protein degradation in hPBMCs: CK1α.

A further experiment concerns the target T6, IKZF3 (Homo sapiens, UniProt Q96SW2+Q9UKT9).
T6 construct: effects of the compounds of the present disclosure on the expression of target proteins in cells; endogenous in cells; host or cells: human PBMCs (hPBMCs)
The experiment is described as follows: Western-blot assay, substrate protein degradation in hPBMCs: IKZF3.

T1 sequence (Q9UKS7 whole entry): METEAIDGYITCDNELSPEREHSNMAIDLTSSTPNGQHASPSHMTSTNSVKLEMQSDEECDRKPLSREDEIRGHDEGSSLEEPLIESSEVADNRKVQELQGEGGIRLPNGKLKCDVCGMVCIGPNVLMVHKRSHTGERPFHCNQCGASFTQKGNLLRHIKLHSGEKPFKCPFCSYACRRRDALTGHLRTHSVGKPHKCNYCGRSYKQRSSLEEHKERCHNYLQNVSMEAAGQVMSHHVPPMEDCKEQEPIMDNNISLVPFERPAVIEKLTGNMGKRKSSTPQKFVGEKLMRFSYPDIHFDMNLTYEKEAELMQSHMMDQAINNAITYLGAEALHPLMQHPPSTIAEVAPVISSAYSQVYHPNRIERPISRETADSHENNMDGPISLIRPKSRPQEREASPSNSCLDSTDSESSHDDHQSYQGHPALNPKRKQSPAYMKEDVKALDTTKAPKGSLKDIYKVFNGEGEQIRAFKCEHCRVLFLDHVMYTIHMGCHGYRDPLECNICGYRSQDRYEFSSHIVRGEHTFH
T1 sequence (Q96SW2 whole entry): as the sequence (Q96SW2 whole entry) above
T1 sequence (Q16531 whole entry partner): as the sequence (Q16531 whole entry partner) above
T2 sequence (P15170 whole entry): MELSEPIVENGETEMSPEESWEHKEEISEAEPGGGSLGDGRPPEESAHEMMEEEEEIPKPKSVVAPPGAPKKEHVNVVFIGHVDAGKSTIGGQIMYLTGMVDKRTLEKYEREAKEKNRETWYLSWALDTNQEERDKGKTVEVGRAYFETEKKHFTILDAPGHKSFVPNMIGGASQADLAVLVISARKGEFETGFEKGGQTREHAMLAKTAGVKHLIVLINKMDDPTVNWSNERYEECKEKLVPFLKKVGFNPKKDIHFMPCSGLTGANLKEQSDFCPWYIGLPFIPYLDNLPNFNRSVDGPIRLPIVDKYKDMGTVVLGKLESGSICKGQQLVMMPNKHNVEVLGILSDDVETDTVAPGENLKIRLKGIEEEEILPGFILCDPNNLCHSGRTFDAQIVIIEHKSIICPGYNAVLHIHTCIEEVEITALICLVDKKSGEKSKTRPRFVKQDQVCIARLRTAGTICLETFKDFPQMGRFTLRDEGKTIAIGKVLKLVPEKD
T2 sequence (Q96SW2 whole entry): as the sequence (Q96SW2 whole entry) above
T2 sequence (Q16531 whole entry partner): as the sequence (Q16531 whole entry partner) above
T6 sequence (Q9UKT9 whole entry): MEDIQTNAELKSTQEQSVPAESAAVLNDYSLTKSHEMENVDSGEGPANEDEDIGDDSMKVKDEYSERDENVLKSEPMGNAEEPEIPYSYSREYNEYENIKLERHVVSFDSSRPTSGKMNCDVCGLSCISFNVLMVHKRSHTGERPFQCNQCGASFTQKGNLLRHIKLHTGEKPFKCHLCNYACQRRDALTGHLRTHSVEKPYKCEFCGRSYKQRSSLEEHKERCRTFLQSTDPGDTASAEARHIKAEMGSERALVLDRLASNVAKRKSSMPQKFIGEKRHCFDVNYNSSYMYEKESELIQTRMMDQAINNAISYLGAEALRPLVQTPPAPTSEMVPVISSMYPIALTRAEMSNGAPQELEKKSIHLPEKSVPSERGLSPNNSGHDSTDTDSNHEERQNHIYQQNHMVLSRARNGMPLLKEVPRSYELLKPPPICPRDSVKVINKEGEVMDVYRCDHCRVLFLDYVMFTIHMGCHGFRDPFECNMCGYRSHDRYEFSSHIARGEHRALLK
T6 sequence (Q96SW2 whole entry): as the sequence (Q96SW2 whole entry) above
T6 sequence (Q16531 whole entry partner): as the sequence (Q16531 whole entry partner) above

As for `O=C1CCN(N2C(=O)c3ccc(CN4CCN(C(c5ccc(Cl)cc5)c5ccc(Cl)cc5)CC4)cc3C2=O)C(=O)N1` [GT-05269, 5-((4-(bis(4-chlorophenyl)methyl)piperazin-1-yl)methyl)-2-(2,4-dioxotetrahydropyrimidin-1(2H)-yl)isoindoline-1,3-dione], the “IKZF2 substrate protein remaining %” value on IKZF2 is “B ("B" is defined as 80%< substrate protein remaining %≤ 100%)”. Moreover, the “GSPT1 substrate protein remaining %” value at GSPT1 is “A ("A" is defined as 0% ≤ substrate protein remaining % ≤ 80%)”. In addition, the “WEE1 substrate protein remaining %” value on WEE1 is listed as “B ("B" is defined as 80%< substrate protein remaining %≤ 100%)”. On IKZF1, the “IKZF1 substrate protein remaining %” value is listed as “B ("B" is defined as 80%< substrate protein remaining %≤ 100%)”. Also, the “CK1α substrate protein remaining %” value on CK1α is on record as “A ("A" is defined as 0% ≤ substrate protein remaining % ≤ 80%)”. Also, the “IKZF3 substrate protein remaining %” value at IKZF3 is given as “B ("B" is defined as 80%< substrate protein remaining %≤ 100%)”.

Turning to `Cc1nc(C2CCN(Cc3ccc4c(c3)C(=O)N(N3CCC(=O)NC3=O)C4=O)CC2)c2ccsc2n1` [GT-05272, 2-(2,4-dioxotetrahydropyrimidin-1(2H)-yl)-5-((4-(2-methylthieno[2,3-d]pyrimidin-4-yl)piperidin-1-yl)methyl)isoindoline-1,3-dione], the “IKZF2 substrate protein remaining %” value at IKZF2 was “A ("A" is defined as 0% ≤ substrate protein remaining % ≤ 80%)”. In addition, the “GSPT1 substrate protein remaining %” value at GSPT1 is recorded as “B ("B" is defined as 80%< substrate protein remaining %≤ 100%)”. Besides, the “WEE1 substrate protein remaining %” value at WEE1 is “B ("B" is defined as 80%< substrate protein remaining %≤ 100%)”. The “IKZF1 substrate protein remaining %” value at IKZF1 was “B ("B" is defined as 80%< substrate protein remaining %≤ 100%)”. Besides, the “CK1α substrate protein remaining %” value on CK1α is recorded as “B ("B" is defined as 80%< substrate protein remaining %≤ 100%)”. For the same compound, the “IKZF3 substrate protein remaining %” value on IKZF3 is “B ("B" is defined as 80%< substrate protein remaining %≤ 100%)”.

With `Cc1sc2ncnc(C3=CCN(Cc4ccc5c(c4)C(=O)N(N4CCC(=O)NC4=O)C5=O)CC3)c2c1C` [GT-05273, 5-((4-(5,6-dimethylthieno[2,3-d]pyrimidin-4-yl)-3,6-dihydropyridin-1(2H)-yl)methyl)-2-(2,4-dioxotetrahydropyrimidin-1(2H)-yl)isoindoline-1,3-dione], at IKZF2, the “IKZF2 substrate protein remaining %” value is “A ("A" is defined as 0% ≤ substrate protein remaining % ≤ 80%)”. In addition, at GSPT1, the “GSPT1 substrate protein remaining %” value is “B ("B" is defined as 80%< substrate protein remaining %≤ 100%)”. Also, the “WEE1 substrate protein remaining %” value on WEE1 was “B ("B" is defined as 80%< substrate protein remaining %≤ 100%)”. Further, on IKZF1, the “IKZF1 substrate protein remaining %” value is given as “B ("B" is defined as 80%< substrate protein remaining %≤ 100%)”. Also, the “CK1α substrate protein remaining %” value at CK1α is listed as “B ("B" is defined as 80%< substrate protein remaining %≤ 100%)”. On IKZF3, the “IKZF3 substrate protein remaining %” value is “B ("B" is defined as 80%< substrate protein remaining %≤ 100%)”.

On to `Cn1cc(C2=CCN(Cc3ccc4c(c3)C(=O)N(N3CCC(=O)NC3=O)C4=O)CC2)c2ccc(F)cc21` [GT-05276, 2-(2,4-dioxotetrahydropyrimidin-1(2H)-yl)-5-((4-(6-fluoro-1-methyl-1H-indol-3-yl)-3,6-dihydropyridin-1(2H)-yl)methyl)isoindoline-1,3-dione], for which the “IKZF2 substrate protein remaining %” value at IKZF2 is listed as “B ("B" is defined as 80%< substrate protein remaining %≤ 100%)”. Further, the “GSPT1 substrate protein remaining %” value on GSPT1 was “A ("A" is defined as 0% ≤ substrate protein remaining % ≤ 80%)”. Besides, the “WEE1 substrate protein remaining %” value on WEE1 was “B ("B" is defined as 80%< substrate protein remaining %≤ 100%)”. In addition, the “IKZF1 substrate protein remaining %” value on IKZF1 is on record as “B ("B" is defined as 80%< substrate protein remaining %≤ 100%)”. The “CK1α substrate protein remaining %” value on CK1α is reported as “B ("B" is defined as 80%< substrate protein remaining %≤ 100%)”. The “IKZF3 substrate protein remaining %” value at IKZF3 is listed as “A ("A" is defined as 0% ≤ substrate protein remaining % ≤ 80%)”.

Turning to `Cc1ccc(N2CCN(Cc3ccc4c(c3)C(=O)N(N3CCC(=O)NC3=O)C4=O)CC2)s1` [GT-05309, 2-(2,4-dioxotetrahydropyrimidin-1(2H)-yl)-5-((4-(5-methylthiophen-2-yl)piperazin-1-yl)methyl)isoindoline-1,3-dione], the “IKZF2 substrate protein remaining %” value at IKZF2 is “B ("B" is defined as 80%< substrate protein remaining %≤ 100%)”. The “GSPT1 substrate protein remaining %” value on GSPT1 was “A ("A" is defined as 0% ≤ substrate protein remaining % ≤ 80%)”. Also, the “WEE1 substrate protein remaining %” value at WEE1 was “B ("B" is defined as 80%< substrate protein remaining %≤ 100%)”. Besides, at IKZF1, the “IKZF1 substrate protein remaining %” value is “B ("B" is defined as 80%< substrate protein remaining %≤ 100%)”. Moreover, at CK1α, the “CK1α substrate protein remaining %” value is “B ("B" is defined as 80%< substrate protein remaining %≤ 100%)”. Besides, on IKZF3, the “IKZF3 substrate protein remaining %” value is on record as “B ("B" is defined as 80%< substrate protein remaining %≤ 100%)”.

Turning to `Cc1ccc(C2=CCN(Cc3ccc4c(c3)C(=O)N(N3CCC(=O)NC3=O)C4=O)CC2)s1` [GT-05310, 2-(2,4-dioxotetrahydropyrimidin-1(2H)-yl)-5-((4-(5-methylthiophen-2-yl)-3,6-dihydropyridin-1(2H)-yl)methyl)isoindoline-1,3-dione], the “IKZF2 substrate protein remaining %” value at IKZF2 was “B ("B" is defined as 80%< substrate protein remaining %≤ 100%)”. Further, on GSPT1, the “GSPT1 substrate protein remaining %” value was “A ("A" is defined as 0% ≤ substrate protein remaining % ≤ 80%)”. For the same compound, on WEE1, the “WEE1 substrate protein remaining %” value was “B ("B" is defined as 80%< substrate protein remaining %≤ 100%)”. For the same compound, the “IKZF1 substrate protein remaining %” value on IKZF1 was “B ("B" is defined as 80%< substrate protein remaining %≤ 100%)”. The “CK1α substrate protein remaining %” value on CK1α is reported as “B ("B" is defined as 80%< substrate protein remaining %≤ 100%)”. In addition, on IKZF3, the “IKZF3 substrate protein remaining %” value is on record as “B ("B" is defined as 80%< substrate protein remaining %≤ 100%)”.

Regarding `O=C1CCN(N2C(=O)c3ccc(CN4CCN(c5ccsc5)CC4)cc3C2=O)C(=O)N1` [GT-05313, 2-(2,4-dioxotetrahydropyrimidin-1(2H)-yl)-5-((4-(thiophen-3-yl)piperazin-1-yl)methyl)isoindoline-1,3-dione], the “IKZF2 substrate protein remaining %” value on IKZF2 was “B ("B" is defined as 80%< substrate protein remaining %≤ 100%)”. For the same compound, the “GSPT1 substrate protein remaining %” value on GSPT1 is recorded as “A ("A" is defined as 0% ≤ substrate protein remaining % ≤ 80%)”. Moreover, at WEE1, the “WEE1 substrate protein remaining %” value is listed as “B ("B" is defined as 80%< substrate protein remaining %≤ 100%)”. The “IKZF1 substrate protein remaining %” value on IKZF1 is listed as “B ("B" is defined as 80%< substrate protein remaining %≤ 100%)”. Moreover, the “CK1α substrate protein remaining %” value on CK1α is listed as “B ("B" is defined as 80%< substrate protein remaining %≤ 100%)”. In addition, at IKZF3, the “IKZF3 substrate protein remaining %” value is on record as “B ("B" is defined as 80%< substrate protein remaining %≤ 100%)”.

As to `Cc1cscc1C1CCN(Cc2ccc3c(c2)C(=O)N(N2CCC(=O)NC2=O)C3=O)CC1` [GT-05314, 2-(2,4-dioxotetrahydropyrimidin-1(2H)-yl)-5-((4-(4-methylthiophen-3-yl)piperidin-1-yl)methyl)isoindoline-1,3-dione], the “IKZF2 substrate protein remaining %” value at IKZF2 is given as “B ("B" is defined as 80%< substrate protein remaining %≤ 100%)”. Also, the “GSPT1 substrate protein remaining %” value on GSPT1 is “A ("A" is defined as 0% ≤ substrate protein remaining % ≤ 80%)”. Further, on WEE1, the “WEE1 substrate protein remaining %” value is “B ("B" is defined as 80%< substrate protein remaining %≤ 100%)”. In addition, the “IKZF1 substrate protein remaining %” value on IKZF1 is listed as “B ("B" is defined as 80%< substrate protein remaining %≤ 100%)”. Further, the “CK1α substrate protein remaining %” value at CK1α is “B ("B" is defined as 80%< substrate protein remaining %≤ 100%)”. At IKZF3, the “IKZF3 substrate protein remaining %” value is “B ("B" is defined as 80%< substrate protein remaining %≤ 100%)”.

On to `O=C1CCN(N2C(=O)c3ccc(CN4CCC(c5ccco5)CC4)cc3C2=O)C(=O)N1` [GT-05315, 2-(2,4-dioxotetrahydropyrimidin-1(2H)-yl)-5-((4-(furan-2-yl)piperidin-1-yl)methyl)isoindoline-1,3-dione], for which, at IKZF2, the “IKZF2 substrate protein remaining %” value is given as “B ("B" is defined as 80%< substrate protein remaining %≤ 100%)”. In addition, the “GSPT1 substrate protein remaining %” value on GSPT1 is on record as “A ("A" is defined as 0% ≤ substrate protein remaining % ≤ 80%)”. Besides, the “WEE1 substrate protein remaining %” value at WEE1 is “B ("B" is defined as 80%< substrate protein remaining %≤ 100%)”. The “IKZF1 substrate protein remaining %” value at IKZF1 is on record as “B ("B" is defined as 80%< substrate protein remaining %≤ 100%)”. The “CK1α substrate protein remaining %” value on CK1α was “B ("B" is defined as 80%< substrate protein remaining %≤ 100%)”. Besides, the “IKZF3 substrate protein remaining %” value at IKZF3 is “B ("B" is defined as 80%< substrate protein remaining %≤ 100%)”.

In the case of `Cc1cscc1C1=CCN(Cc2ccc3c(c2)C(=O)N(N2CCC(=O)NC2=O)C3=O)CC1` [GT-05316, 2-(2,4-dioxotetrahydropyrimidin-1(2H)-yl)-5-((4-(4-methylthiophen-3-yl)-3,6-dihydropyridin-1(2H)-yl)methyl)isoindoline-1,3-dione], the “IKZF2 substrate protein remaining %” value at IKZF2 is “B ("B" is defined as 80%< substrate protein remaining %≤ 100%)”. The “GSPT1 substrate protein remaining %” value at GSPT1 was “A ("A" is defined as 0% ≤ substrate protein remaining % ≤ 80%)”. Besides, the “WEE1 substrate protein remaining %” value at WEE1 was “B ("B" is defined as 80%< substrate protein remaining %≤ 100%)”. Also, the “IKZF1 substrate protein remaining %” value on IKZF1 is recorded as “B ("B" is defined as 80%< substrate protein remaining %≤ 100%)”. Besides, the “CK1α substrate protein remaining %” value on CK1α was “B ("B" is defined as 80%< substrate protein remaining %≤ 100%)”. Besides, the “IKZF3 substrate protein remaining %” value at IKZF3 is listed as “B ("B" is defined as 80%< substrate protein remaining %≤ 100%)”.
